Converted amounts (≈) assume the structure as drawn.
Assays:
[1] = PubChem BioAssays; cited from earlier work
[2] = biological target: T1, Topo1 (Homo sapiens, UniProt P11387); assay: in vitro Topo1 drug screening assay (Topogen); type: biochemical; settings: increasing amounts, compared to the 0 chem control
T1 construct: purchased Topogen
T1 sequence (P11387 1-765): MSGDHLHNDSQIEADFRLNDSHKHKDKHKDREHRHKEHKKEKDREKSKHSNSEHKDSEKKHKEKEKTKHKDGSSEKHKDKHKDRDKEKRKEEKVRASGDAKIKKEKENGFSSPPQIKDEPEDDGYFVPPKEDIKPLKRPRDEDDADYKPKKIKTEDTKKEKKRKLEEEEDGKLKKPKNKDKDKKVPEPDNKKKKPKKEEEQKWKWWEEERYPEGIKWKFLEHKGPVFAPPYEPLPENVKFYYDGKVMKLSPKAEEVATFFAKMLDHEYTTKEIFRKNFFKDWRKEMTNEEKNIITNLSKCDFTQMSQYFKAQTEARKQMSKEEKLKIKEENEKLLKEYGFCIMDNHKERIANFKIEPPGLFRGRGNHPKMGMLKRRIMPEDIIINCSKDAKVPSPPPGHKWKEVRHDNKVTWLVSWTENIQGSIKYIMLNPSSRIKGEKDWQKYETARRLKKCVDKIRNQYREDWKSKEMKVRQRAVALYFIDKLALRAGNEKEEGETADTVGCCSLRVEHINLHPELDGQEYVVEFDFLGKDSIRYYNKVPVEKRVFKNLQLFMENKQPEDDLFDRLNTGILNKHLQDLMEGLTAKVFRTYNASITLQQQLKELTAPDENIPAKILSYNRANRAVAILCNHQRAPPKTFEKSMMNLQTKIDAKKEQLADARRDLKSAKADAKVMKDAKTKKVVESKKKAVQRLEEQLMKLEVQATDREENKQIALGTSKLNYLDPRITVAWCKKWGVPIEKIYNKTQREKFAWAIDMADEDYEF

[3] = system: A3.01 cells; assay: cell cycle test (propidium iodide, flow cytometry); type: cell-based; settings: for G2 block: CPT 0.2 μM, OYA002-16 0.2 and 0.4 μM
Procedure: FIGS. 9A and 9B illustrate results of an in vitro drug screening assay for toxicity of the OYA002-16 small molecule of the present invention. […] After 24 hours of compound treatment cells were fixed in methanol and treated with propidium iodide (PI) to stain the cellular DNA in A3.01 cells (a CEM derived T-cell line). Flow cytometry of the cells can detect if the cells are in the G1 S or G2 phase of mitosis based on amount of PI staining in each cell.

[4] = biological target: T2, Vif:Vif complex (Human immunodeficiency virus type 1 group M subtype B, UniProt P12504); type: cell-based, HIV; settings: change in RFU over the quenched control
T2 construct: expressed in transfected cells; host or cells: HEK 293T cells, transient co-transfection of two plasmids
T2 sequence (P12504 whole entry, one chain of several): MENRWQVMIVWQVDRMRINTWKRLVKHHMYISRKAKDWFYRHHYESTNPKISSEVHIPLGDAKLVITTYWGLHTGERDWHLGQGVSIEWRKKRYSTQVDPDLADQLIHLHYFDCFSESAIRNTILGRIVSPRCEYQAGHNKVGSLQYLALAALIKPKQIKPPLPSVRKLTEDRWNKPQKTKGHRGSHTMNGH
Text: EGFP-V5-Vif (the fluorescence donor) and Vif-HA-REACh2 (the acceptor and non-fluorescent YFP variant that quenches EGFP fluorescence) will be co-expressed in HEK 293T cells. Compounds that dissociate Vif multimers will induce EGFP fluorescence making this a positive screen for small molecules that disrupt Vif self-association.
EGFP is a FRET donor and REACh2 (Resonance Energy Accepting Chromoprotein 2) is a non-fluorescent FRET acceptor (54). The non-fluorescent REACh2 is able to quench EGFP signal in a distance-dependent manner when they are linked to interacting domains. However, if there is no interaction, EGFP and REACh2 are not proximal and quenching will not occur. […]
EGFP-V5-Vif alone has a strong baseline fluorescence. […]
Experimentals relating to adapting the quenched FRET assay to 96-well and 384-well format are set forth below: • Description of reagents and readouts: We are currently capable of screening small libraries in 96-well format, and have optimized transfections for 384-well format. […] REACh2 is a non-fluorescent YFP variant that quenches EGFP through FRET, so in the default state Vif dimerizes and the EGFP signal is quenched, a compound that affects the interaction will cause an increase in fluorescence due to lack of FRET from interacting proteins (aka “releasing of the quench”). Our read out is fluorescence at GFP's excitation and emission in a PE Victor 3 plate reader. […]

[5] = system: pseudotyped HIV; assay: single round infectivity assay with pseudotyped HIV (TZM-bl luciferase reporter cells); type: cell-based; settings: up to 33.3 μM, +/−Vif, +/−A3G
Procedure: The antiviral activity of the hits in a single round infection with psuedotyped HIV was assessed. […] The wildtype HIV proviral vector codes for all HIV genes except nef (replaced with EGFP) and env. The delta Vif proviral vector is identical to wildtype except that it contains a stop codon early within the vif gene. […] Alternatively, in the absence of A3G, both wild type and Delta Vif viruses should have good infectivity.
Transfecting the coat protein on a separate vector, allows for only a single round of infection. […] Viral load was normalized with a p24 ELISA Kit (Zeptometrix, Buffalo, N.Y.). Equal viral loads were then added in triplicate to TZM-bl reporter cells that express luciferase from the HIV-LTR promoter. 48 hours after infection luciferase levels were assessed with Steady-Glo reagent (Promega).
The antiviral activity of the hits in a single-round infection with pseudotyped HIV were conducted using HEK293T producer cells +/−A3G and viruses that are +/−Vif. […]
The infections utilized TZM-bl reporter cells that contain stably integrated luciferase that is driven by the HIV-LTR promoter, therefore luciferase is expressed upon successful HIV infection. […] Luminescence was measured as a quantitative metric for changes in infectivity with each compound as compared to controls, in which relative luminescence units (RLU) with no compounds are set to 100%.

[6] = system: A3G in viral particles; assay: A3G viral particle content (western blot of purified viral particles); type: cell-based; settings: p24 normalized
Text: Perform ‘hit’ validation assays to confirm that small molecules selected by the primary and secondary screens have antiviral activity through their antagonism of Vif self-association. Antiviral activity will be validated for each compound with a luciferase viral infectivity reporter assay using infected TZM-bl cells in microtiter plate format. Each compound's ability to inhibit Vif-Vif interaction will be evaluated by co-immunoprecipitation.
Another way to observe target specificity is by looking at the amount of A3G that is encapsulated into the viral particle. Since Vif blocks A3G from getting into the virus, more A3G should be present in viral particles isolated from cells dosed with a small molecule that disables Vif's function.

[7] = system: Vif-dependent A3G degradation; assay: in-cell secondary screen for Vif-dependent A3G degradation (A3G-mCherry 293T cells); type: cell-based; settings: compared to +Vif (0%) and −Vif (100%) controls
Procedure: FIG. 10 illustrates in-cell secondary screen fro Vif-dependent A3G degradation. […] 50 ng of Vif was transiently transfected into the cells in 384-well format with Turbofect. 4 hours after transfection the chemistries were added to cells. 24 hours after chemistries were added the mCherry signal was read on a Biotek Synergy 4 plate reader. The signal from plated cells not transfected with Vif was averaged and set at 100% (left image), and cells transfected with Vif and treated with DMSO only were averaged and set at 0% (right image). A chemistry that inhibits Vif's ability to chaperone A3G to the proteasomal degradation pathway would result in an increased mCherry signal compared to the DMSO only control, and any signal that is much higher than the no-Vif positive control is likely to be due to autofluorescence from the chemistry itself.
The primary screen is represented as a change in RFU over the quenched control (ARFU). The secondary screen is compared to the +Vif (0%) and −Vif (100%) controls as described in FIG. 10.

[8] = system: 885 bp region of Pol; assay: Next Gen Sequencing for A3G signature mutation profiles; type: cell-based, HIV
Text: FIG. 14 is an illustration relating to a Next Gen Sequencing for A3G signature mutation profiles. Next Gen Sequencing with the Ion Torrent platform was used to sequence over 27 million bases for each sample. An 885 bp region of Pol was nested PCR amplified from genomic DNA isolated from TZM-bl cells infected in the previous Figures with −Vif virus+A3G (Positive Control) and +Vif virus+A3G & OYA002-16 (OYA002-16) and −Vif−A3G & OYA002-16 (Negative Control). There were 60 possible A3G “GG” signature mutation sites (A3G mediated single-stranded DNA mutations occur preferentially at the 3′ C of CC dinucleotide pairs) in the region sequenced. 34 sites were mutated at a rate of 15- to 339-fold over the background mutation rate for the Positive Control. 34 sites were mutated at a rate of 48 to 200-fold over background for the OYA002-16 sample. 21 sites overlapped between the two.

[9] = system: HepG2 cells; assay: high content imaging toxicity study, HepG2; type: cell-based
Procedure: (§1) All cells are plated on 384-well collagen-coated, tissue culture-treated black walled clear bottomed polystyrene plates. Rat hepatocytes are seeded and dosed on the day they are harvested. Dosing takes place after attachment to the plate. They are treated with test compound at a 10 point dose range of concentrations and incubated for 24 and 48 hrs. HepG2 cells are seeded on the day prior to dosing and are treated with test compound at a 10 point dose range of concentrations and incubated for 24 and 72 hours. At the end of the incubation period, the cells are loaded with the relevant dye/antibody for each cell health marker. The plates are then scanned using an automated High Content Imager, Array Scan® VTI (Thermo Fisher Cellomics). The GSH, ROS, and 5 day toxicity assays were run at 1 time point, 18 hours post-dosing for GSH, 4 hr post-dose for ROS, and 5 days post-drug treatment for the 5 day assay.

[10] = system: rat hepatocytes and HepG2 cells; assay: high content imaging toxicity study, all tested cell types; type: cell-based
Procedure: as §1

[11] = solubility in Lac-Buffer; type: physicochemical; settings: 37 °C, thermodynamic from solid
Procedure: Solubility: 0.7 mg of OYA002-16 was suspended in 100.8 μl Lac-Buffer pH 4.5 or pH 7.4, vortexed for 10 min and warmed-up at 37° C. for 10 min, sonicated for 5 min and vortexed again for 10 min and centrifuged for 10 min. Supernatant was directly injected for concentration measurement. pH 7.4 Solubility: 65-72 μM by UV, 58-63 μM by CLND. pH 4.5 Solubility: 74-92 μM by UV, 74 μM by CLND.
(§2) HPLC conditions used for the experiments were as follows: Column: Luna C-18, 150×4.6 from Phenomenex. Eluent: 42% aqueous CAN with 0.75 mM NH4OAc, pH=6.8. Detection: UV at 254 nm. Temperature: 35° C. Flow: 1.5 mL/min. Injection: 20 uL (solubility, freeze/thaw) or 200 uL (stability).

[12] = stability test in PBS buffer; type: physicochemical; settings: after 48 h in PBS
Procedure: For each compound, a 0.250 uM stock solution in DMSO was prepared and sonicated until clear. Then, for each stability test, the cpd was formulated by adding 10 uL of the stock solution to 990 uL of PBS buffer, pH 7.0 and then a 200 uL aliquot was incubated 37° C. for 24 or 48 hrs.
as §2

[13] = stability test after 3 freeze/thaw cycles; type: physicochemical
Procedure: For each compound, an aliquot of the stock solution (250 uM in DMSO) was frozen for 24 hrs at −80° C. and thawed for 1 hr, 3 times, then diluted 10 times in 40% CAN and analyzed by HPLC.
as §2

Which “active in Anti-Cancer Screens at NCI” value [1] does the source give for `CC[C@@]1(O)C(=O)OCc2c1cc1n(c2=O)Cc2cc3c(NC(=O)CN)cccc3nc2-1` [9-glycineamido-20(S)-CPT] here?
Its value is 37 of 76.

For `CC[C@@]1(O)C(=O)OCc2c1cc1n(c2=O)Cc2cc3c(CN(C)C)c(O)ccc3nc2-1` [Topotecan], which “active in Anti-Cancer Screens at NCI” value [1] is on record?
Its value is “active in most”.

With `CC[C@@]1(O)C(=O)OCc2c1cc1n(c2=O)Cc2cc3ccccc3nc2-1` [CPT, Camptothecin] as the molecule, how does the “open nicked circles of plasmid DNA (Topo1 poisoning)” value [2] read?
The value was “trap plasmid DNA into open nicked circles”.

What about the G2 block ([3]; 24 hours) of the same molecule?
The G2 block was “strong G2 block”.

With `CC[C@H]1C(=O)OCc2c1cc1n(c2=O)Cc2cc3ccccc3nc2-1` [deoxy-CPT] as the molecule, how does the “active in Anti-Cancer Screens at NCI” value [1] read?
Its value is 4 of 68.

With `CC[C@@]1(O)C(=O)NCc2c1cc1n(c2=O)Cc2cc3ccccc3nc2-1` [OYA002-16, Lactam-CPT] as the molecule, how does the “dose dependence in primary screen” value [4] read?
Its value is “dose dependence”.

What about the “antiviral effect in single cycle HIV infectivity” value [5] of the same molecule?
The value was “dose dependent antiviral effect only when Vif and A3G were expressed”.

And the “A3G in viral particles” value [6]?
The value was “increases A3G in viral particles”.

What about the “open nicked circles of plasmid DNA (Topo1 poisoning)” value [2] of the same molecule?
Its value is “no increase in open nicked circles”.

And the cell cycle effects [3]?
Its cell cycle effects is “minimal cell cycle effects”.

What about the “cells in G2” value ([3]; 0.2 and 0.4 μM, 24 hours, DMSO control 17%) of the same molecule?
Its value is 22%.

And the G2 block ([3]; 24 hours)?
The G2 block was “minimal amount of G2 block”.

What about the “dose dependence in secondary screen (mCherry signal)” value [7] of the same molecule?
The value was “dose dependence”.

And the “mutated sites overlapping with Positive Control” value [8]?
Its value is 21 sites.

And the “A3G signature mutation sites mutated” value ([8]; +Vif virus +A3G, 60 possible sites)?
The value was 34 sites.

And the Cytostasis [9]?
The Cytostasis was “largest effect”.

What about the “Stress and Apoptosis assays” value [10] of the same molecule?
Its value is “minimal effect”.

And the Viability tests [10]?
Its Viability tests is “minimal effect”.

What about the solubility at 35 min ([11]; pH 4.5, aqueous buffer, pH 4.5, by CLND) of the same molecule?
Its solubility at 35 min is 74 µM (≈ 25.7 µg/mL).

And the solubility at 35 min ([11]; pH 4.5, aqueous buffer, pH 4.5, by UV)?
The solubility at 35 min was 74 to 92 µM (≈ 25.7 to 32 µg/mL).

And the solubility at 35 min ([11]; pH 7.4, aqueous buffer, pH 7.4, by CLND)?
The solubility at 35 min was 58 to 63 µM (≈ 20.1 to 21.9 µg/mL).

What about the solubility at 35 min ([11]; pH 7.4, aqueous buffer, pH 7.4, by UV) of the same molecule?
The solubility at 35 min was 65 to 72 µM (≈ 22.6 to 25 µg/mL).

What about the stable [12] of the same molecule?
The stable was 100%.

And the stable [13]?
Its stable is 100%.

— patent US10588902B2, “Camptothecin derivatives as anti-HIV agents and methods of identifying agents that disrupt Vif self-association” (OyaGen, Inc., priority 2013, dated 2020)
